Reference: PubChem BioAssay (NCI)
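Dose response: 5 concentrations. Exposure: 48 h. Format: 96-well plates. Endpoint: linear interpolation; highest concentration if not reached. The concentration for 50% growth inhibition is given as GI50. TGI: concentration producing complete growth inhibition.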

Legend:
Assay in all cases: NCI-60 cell line screen, 48 h
786-0 renal = system: 786-0 renal
A498 renal = system: A498 renal
A549 NSCLC = system: A549 NSCLC
ACHN renal = system: ACHN renal
BT-549 breast = system: BT-549 breast
CAKI-1 renal = system: CAKI-1 renal
CCRF-CEM leukemia = system: CCRF-CEM leukemia
COLO 205 colon = system: COLO 205 colon
DU-145 prostate = system: DU-145 prostate
EKVX NSCLC = system: EKVX NSCLC
HCC-2998 colon = system: HCC-2998 colon
HCT-116 colon = system: HCT-116 colon
HCT-15 colon = system: HCT-15 colon
HL-60(TB) leukemia = system: HL-60(TB) leukemia
HOP-62 NSCLC = system: HOP-62 NSCLC
HOP-92 NSCLC = system: HOP-92 NSCLC
HS 578T breast = system: HS 578T breast
HT29 colon = system: HT29 colon
IGROV1 ovarian = system: IGROV1 ovarian
K-562 leukemia = system: K-562 leukemia
KM12 colon = system: KM12 colon
LOX IMVI melanoma = system: LOX IMVI melanoma
M14 melanoma = system: M14 melanoma
MALME-3M melanoma = system: MALME-3M melanoma
MCF7 breast = system: MCF7 breast
MDA-MB-435 = system: MDA-MB-435
MDA-MB-468 breast = system: MDA-MB-468 breast
MOLT-4 leukemia = system: MOLT-4 leukemia
NCI-H226 lung = system: NCI-H226 lung
NCI-H23 lung = system: NCI-H23 lung
NCI-H460 lung = system: NCI-H460 lung
NCI-H522 lung = system: NCI-H522 lung
NCI/ADR-RES ovarian = system: NCI/ADR-RES ovarian
OVCAR-3 ovarian = system: OVCAR-3 ovarian
OVCAR-4 ovarian = system: OVCAR-4 ovarian
OVCAR-5 ovarian = system: OVCAR-5 ovarian
OVCAR-8 ovarian = system: OVCAR-8 ovarian
PC-3 prostate = system: PC-3 prostate
RPMI-8226 leukemia = system: RPMI-8226 leukemia
RXF 393 renal = system: RXF 393 renal
SF-268 CNS = system: SF-268 CNS
SF-295 CNS = system: SF-295 CNS
SF-539 CNS = system: SF-539 CNS
SK-MEL-28 melanoma = system: SK-MEL-28 melanoma
SK-MEL-5 melanoma = system: SK-MEL-5 melanoma
SK-OV-3 ovarian = system: SK-OV-3 ovarian
SN12C renal = system: SN12C renal
SNB-19 CNS = system: SNB-19 CNS
SR leukemia = system: SR leukemia
SW-620 colon = system: SW-620 colon
T-47D breast = system: T-47D breast
TK-10 renal = system: TK-10 renal
U251 CNS = system: U251 CNS
UACC-257 melanoma = system: UACC-257 melanoma
UACC-62 melanoma = system: UACC-62 melanoma

O=C(Cc1c(-c2ccccc2[N+](=O)[O-])n(-c2ncnc3c2c(-c2ccccc2)c(-c2ccccc2)n3Cc2ccccc2)[nH]c1=O)c1ccc(Cl)c(Cl)c1
GI50 (786-0 renal): 26.8 µM
TGI (786-0 renal): > 100 µM
GI50 (A498 renal): 16.6 µM
TGI (A498 renal): 78 µM
GI50 (A549 NSCLC): 19.7 µM
TGI (A549 NSCLC): > 100 µM
GI50 (ACHN renal): 15.2 µM
TGI (ACHN renal): > 100 µM
GI50 (BT-549 breast): 12.1 µM
TGI (BT-549 breast): 53.8 µM
GI50 (CAKI-1 renal): 15.7 µM
TGI (CAKI-1 renal): 93.9 µM
GI50 (CCRF-CEM leukemia): 18.6 µM
TGI (CCRF-CEM leukemia): > 100 µM
GI50 (COLO 205 colon): 11.5 µM
TGI (COLO 205 colon): 24.7 µM
GI50 (DU-145 prostate): 33.9 µM
TGI (DU-145 prostate): > 100 µM
GI50 (EKVX NSCLC): 3.84 µM
TGI (EKVX NSCLC): > 100 µM
GI50 (HCC-2998 colon): 18.8 µM
TGI (HCC-2998 colon): > 100 µM
GI50 (HCT-116 colon): 5.9 µM
TGI (HCT-116 colon): 80.9 µM
GI50 (HCT-15 colon): 15.8 µM
TGI (HCT-15 colon): 57.5 µM
GI50 (HL-60(TB) leukemia): 5.24 µM
TGI (HL-60(TB) leukemia): 58.7 µM
GI50 (HOP-62 NSCLC): 19.4 µM
TGI (HOP-62 NSCLC): 85.5 µM
GI50 (HOP-92 NSCLC): 2.2 µM
TGI (HOP-92 NSCLC): 23.7 µM
GI50 (HS 578T breast): 10.4 µM
TGI (HS 578T breast): 74.6 µM
GI50 (HT29 colon): 10.1 µM
TGI (HT29 colon): > 100 µM
GI50 (IGROV1 ovarian): 12.1 µM
TGI (IGROV1 ovarian): > 100 µM
GI50 (K-562 leukemia): 6.68 µM
TGI (K-562 leukemia): > 100 µM
GI50 (KM12 colon): 15.1 µM
TGI (KM12 colon): > 100 µM
GI50 (LOX IMVI melanoma): 11.6 µM
TGI (LOX IMVI melanoma): 26.9 µM
GI50 (M14 melanoma): 17.7 µM
TGI (M14 melanoma): 58.1 µM
GI50 (MALME-3M melanoma): 12.4 µM
TGI (MALME-3M melanoma): 48.9 µM
GI50 (MCF7 breast): 12.7 µM
TGI (MCF7 breast): 47.7 µM
GI50 (MDA-MB-435): 19.5 µM
TGI (MDA-MB-435): 62.2 µM
GI50 (MDA-MB-468 breast): 5.29 µM
TGI (MDA-MB-468 breast): 33.5 µM
GI50 (MOLT-4 leukemia): 13.4 µM
TGI (MOLT-4 leukemia): 61.6 µM
GI50 (NCI-H226 lung): 14.4 µM
TGI (NCI-H226 lung): 61 µM
GI50 (NCI-H23 lung): 13.3 µM
TGI (NCI-H23 lung): 72.5 µM
GI50 (NCI-H460 lung): 15.3 µM
TGI (NCI-H460 lung): > 100 µM
GI50 (NCI-H522 lung): 7.37 µM
TGI (NCI-H522 lung): 72.8 µM
GI50 (NCI/ADR-RES ovarian): 19.7 µM
TGI (NCI/ADR-RES ovarian): > 100 µM
GI50 (OVCAR-3 ovarian): 12.8 µM
TGI (OVCAR-3 ovarian): > 100 µM
GI50 (OVCAR-4 ovarian): 13.2 µM
TGI (OVCAR-4 ovarian): > 100 µM
GI50 (OVCAR-5 ovarian): 16.4 µM
TGI (OVCAR-5 ovarian): 83.8 µM
GI50 (OVCAR-8 ovarian): 20.1 µM
TGI (OVCAR-8 ovarian): > 100 µM
GI50 (PC-3 prostate): 5.45 µM
TGI (PC-3 prostate): > 100 µM
GI50 (RPMI-8226 leukemia): 3.38 µM
TGI (RPMI-8226 leukemia): 29.7 µM
GI50 (RXF 393 renal): 22.5 µM
TGI (RXF 393 renal): > 100 µM
GI50 (SF-268 CNS): 29.4 µM
TGI (SF-268 CNS): > 100 µM
GI50 (SF-295 CNS): 8.34 µM
TGI (SF-295 CNS): > 100 µM
GI50 (SF-539 CNS): 21 µM
TGI (SF-539 CNS): 83.9 µM
GI50 (SK-MEL-28 melanoma): 17.9 µM
TGI (SK-MEL-28 melanoma): > 100 µM
GI50 (SK-MEL-5 melanoma): 8.89 µM
TGI (SK-MEL-5 melanoma): 21.6 µM
GI50 (SK-OV-3 ovarian): 14.2 µM
TGI (SK-OV-3 ovarian): 55.4 µM
GI50 (SN12C renal): 15.1 µM
TGI (SN12C renal): > 100 µM
GI50 (SNB-19 CNS): 15.9 µM
TGI (SNB-19 CNS): > 100 µM
GI50 (SR leukemia): 12.4 µM
TGI (SR leukemia): 45.3 µM
GI50 (SW-620 colon): 22.5 µM
TGI (SW-620 colon): > 100 µM
GI50 (T-47D breast): 2.76 µM
TGI (T-47D breast): > 100 µM
GI50 (TK-10 renal): 29.3 µM
TGI (TK-10 renal): > 100 µM
GI50 (U251 CNS): 13.7 µM
TGI (U251 CNS): > 100 µM
GI50 (UACC-257 melanoma): 9.08 µM
TGI (UACC-257 melanoma): 66.1 µM
GI50 (UACC-62 melanoma): 5.17 µM
TGI (UACC-62 melanoma): 20.9 µM
